Results: patent publication US7037673B2, “Dipeptide production method, L-amino acid amide hydrolase used therein, and production method of L-amino acid amide hydrolase” (Ajinomoto Co., Inc., priority 2001, dated 2006)
Residues, ends and D or L forms follow the SMILES beside them.

tested on: L-alanine amide hydrolase; experiment: Production of L-alanyl-L-asparagine and L-alanyl-L-glutamine with purified enzyme; assay type: biochemical, Corynebacterium glutamicum strain ATCC 13286; conditions: 50 μmol L-alanine amide hydrochloride + 150 μmol L-asparagine or L-glutamine, 0.08 unit enzyme, 1 ml, pH 9.0, 30° C., 10 hours
Text: Hereinafter, the present invention will be explained in more detail by way of examples. However, the present invention should not be considered to be limited to these examples.
The L-alanine amide hydrolase uniformly purified in Example 2 was allowed to act on L-alanine amide hydrochloride and L-asparagine or L-alanine amide hydrochloride and L-glutamine to produce L-alanyl-L-asparagine or L-alanyl-L-glutamine. In the case of obtaining L-alanyl-L-asparagine, 200 μmol of Tris-HCl buffer (pH 9.0), 50 μmol or L-alanine amide hydrochloride, 150 μmol of L-asparagine and enzyme liquid containing 0.08 unit of L-alanine amide hydrolase were added and mixed to a final volume of 1 ml. In the case of obtaining L-alanyl-L-glutamine, the reactants were mixed under the same conditions as in the case of L-alanyl-L-asparagine with the exception of using 150 μmol of L-glutamine instead of 150 μmol of L-asparagine. Control experiments were established for the case of using one of the substrates or setting the lot in which enzyme was not added. The reaction was carried out at a reaction temperature of 30° C. for 10 hours, and the results of quantifying the target product are shown in Table 3.

Row | SMILES | Product concentration
1 | C[C@H](N)C(=O)N[C@@H](CC(N)=O)C(=O)O [L-alanyl-L-asparagine] (H-Ala-Asn-OH) | 8.4 mM
2 | C[C@H](N)C(=O)N[C@@H](CCC(N)=O)C(=O)O [L-alanyl-L-glutamine] (H-Ala-Gln-OH) | 7.7 mM

tested on: L-alanine amide hydrolase; experiment: Measurement of activity of L-alanine amide hydrolase (L-alanyl-L-glutamine formation, HPLC); assay type: biochemical, Corynebacterium glutamicum strain ATCC 13286; conditions: His-Tag purified enzyme
Method: Measurement of L-alanine amide enzyme activity was carried out by incubating a reaction mixture containing 50 mM L-alanine amide, 150 mM L-glutamine, 100 mM Tris-HCl buffer (pH 9.0), 10 mM EDTA and enzyme solution at 30° C. for 60 minutes followed by stopping the reaction by adding aqueous phosphoric acid (pH 1.5) equal to four volumes of the reaction mixture. The amount of L-alanyl-L-glutamine was determined by HPLC. For the unit of enzyme activity, enzyme activity that produces 1 μmol of L-alanyl-L-glutamine in 1 minute under these conditions was defined as 1 unit (U).
The conditions of HPLC used for analysis were as indicated below.
Mobile phase: (aqueous phosphoric acid solution (pH 2.1)), 2.5 mM sodium-1-octanesulfonate/methanol=10/1
Column temperature: 40° C.

Row | SMILES | production yield of Ala-Gln relative to L-alanine amide
3 | C[C@H](N)C(=O)N[C@@H](CCC(N)=O)C(=O)O [L-alanyl-L-glutamine] (H-Ala-Gln-OH) | 7.2%

tested on: His-Tag L-alanine amide hydrolase; experiment: Study of substrate specificity using His-Tag purified enzyme; assay type: biochemical, Corynebacterium glutamicum strain ATCC 13286; conditions: 100 mM L-alanine amide, 150 mM test amino acid, pH 9.0, enzyme 0.0045 U/ml, 25° C., 3 hours

Row | SMILES | peptide synthesized from L-alanine amide and test amino acid
4 | C[C@H](N)C(=O)N[C@@H](C)C(=O)O [L-alanyl-L-alanine] (H-Ala-Ala-OH) | 10.11 mM
5 | C[C@H](N)C(=O)N[C@@H](CCCNC(=N)N)C(=O)O [L-alanyl-L-arginine] (H-Ala-Arg-OH) | 27.69 mM
6 | C[C@H](N)C(=O)N[C@@H](CCC(=O)O)C(=O)O [L-alanyl-L-glutamate] (H-Ala-Glu-OH) | 1.20 mM
7 | C[C@H](N)C(=O)N[C@@H](Cc1c[nH]cn1)C(=O)O [L-alanyl-L-histidine] (H-Ala-His-OH) | 12.52 mM
8 | CC[C@H](C)[C@H](NC(=O)[C@H](C)N)C(=O)O [L-alanyl-L-isoleucine] (H-Ala-Ile-OH) | 14.11 mM
9 | CC(C)C[C@H](NC(=O)[C@H](C)N)C(=O)O [L-alanyl-L-leucine] (H-Ala-Leu-OH) | 9.60 mM
10 | C[C@H](N)C(=O)N[C@@H](CCCCN)C(=O)O [L-alanyl-L-lysine] (H-Ala-Lys-OH) | 18.83 mM
11 | CSCC[C@H](NC(=O)[C@H](C)N)C(=O)O [L-alanyl-L-methionine] (H-Ala-Met-OH) | 14.49 mM
12 | C[C@H](N)C(=O)N[C@@H](Cc1ccccc1)C(=O)O [L-alanyl-L-phenylalanine] | 13.42 mM
13 | C[C@H](N)C(=O)N1CCC[C@H]1C(=O)O [L-alanyl-L-proline] (H-Ala-Pro-OH) | 0.81 mM
14 | C[C@H](N)C(=O)N[C@@H](CO)C(=O)O [L-alanyl-L-serine] (H-Ala-Ser-OH) | 24.67 mM
15 | C[C@H](N)C(=O)N[C@H](C(=O)O)[C@@H](C)O [L-alanyl-L-threonine] (H-Ala-Thr-OH) | 20.76 mM
16 | C[C@H](N)C(=O)N[C@@H](Cc1c[nH]c2ccccc12)C(=O)O [L-alanyl-L-tryptophan] (H-Ala-Trp-OH) | 10.09 mM
17 | C[C@H](N)C(=O)N[C@@H](Cc1ccc(O)cc1)C(=O)O [L-alanyl-L-tyrosine] (H-Ala-Tyr-OH) | 1.52 mM
18 | CC(C)[C@H](NC(=O)[C@H](C)N)C(=O)O [L-alanyl-L-valine] (H-Ala-Val-OH) | 9.72 mM
19 | C[C@H](N)C(=O)NCC(=O)O [L-alanyl-glycine] (H-Ala-Gly-OH) | 7.54 mM

same assay, conditions: 100 mM test amino acid amide, 150 mM L-glutamine, pH 9.0, enzyme 0.0045 U/ml, 25° C., 3 hours

Row | SMILES | peptide produced from test amino acid amide and L-glutamine
20 | NCC(=O)N[C@@H](CCC(N)=O)C(=O)O [glycyl-L-glutamine] (H-Gly-Gln-OH) | 17.7 mM
21 | NC(=O)CC[C@H](NC(=O)[C@@H](N)CC(=O)O)C(=O)O [α-L-aspartyl-glutamine] (H-Asp-Gln-OH) | 21.2 mM

tested on: not given; experiment: not given; conditions: compared with L-glutamine; cited from earlier work

Row | SMILES | stability | water-solubility
22 | C[C@H](N)C(=O)N[C@@H](CCC(N)=O)C(=O)O [L-alanyl-L-glutamine] (H-Ala-Gln-OH) | higher | higher
